{
  "source": "patent US5066658A",
  "about": "“Substituted hydroxyureas” (Ortho Pharmaceutical Corporation, priority 1990, dated 1991)",
  "key": {"[1]": {"biological_target": "T1, 5-lipoxygenase (Rattus norvegicus, UniProt P12527)", "T1 construct": "The cell-free homogenate was prepared by sonication of the cells followed by centrifugation at 40,000 xg; endogenous in cells; host or cells: RBL-1 (rat basophilic leukemia) cells, 40,000 xg supernatant of the sonicate", "T1 sequence (P12527 1-673)": "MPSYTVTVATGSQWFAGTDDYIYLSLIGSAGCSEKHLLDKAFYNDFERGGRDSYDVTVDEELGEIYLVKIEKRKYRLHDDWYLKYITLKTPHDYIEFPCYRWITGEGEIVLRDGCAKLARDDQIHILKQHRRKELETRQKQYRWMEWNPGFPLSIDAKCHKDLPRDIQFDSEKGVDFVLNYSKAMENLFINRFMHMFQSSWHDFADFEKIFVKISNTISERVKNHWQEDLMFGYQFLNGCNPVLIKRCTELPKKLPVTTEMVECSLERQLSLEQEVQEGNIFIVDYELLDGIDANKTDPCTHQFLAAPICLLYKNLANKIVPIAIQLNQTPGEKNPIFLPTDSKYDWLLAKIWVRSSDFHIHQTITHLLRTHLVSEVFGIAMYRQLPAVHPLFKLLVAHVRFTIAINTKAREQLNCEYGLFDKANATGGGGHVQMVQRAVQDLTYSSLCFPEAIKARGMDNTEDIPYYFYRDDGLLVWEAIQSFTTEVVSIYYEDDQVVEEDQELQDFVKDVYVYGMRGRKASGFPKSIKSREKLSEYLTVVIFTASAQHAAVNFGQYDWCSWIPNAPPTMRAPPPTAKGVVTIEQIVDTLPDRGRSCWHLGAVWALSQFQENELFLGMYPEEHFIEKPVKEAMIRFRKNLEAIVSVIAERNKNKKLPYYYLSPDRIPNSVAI", "test": "Inhibition of 5-lipoxygenase in cell-free homogenate of rat basophilic leukemia (RBL-1) cells", "format": "biochemical", "details": "RBL-1 cell-free homogenate; for inhibition at 3 µM: read-out: Inhibition of 5-Lipoxygenase, % Inh. @ 3 μM", "method_in_brief": "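40,000 xg supernatant of sonicated RBL-1 cell homogenate incubated with ^14C-arachidonic acid and CaCl2, with drug or vehicle. Products extracted after acidification, separated by TLC and quantified by scintillation counting; IC50 or percent inhibition at 3 μM reported.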"}, "[2]": {"test_system": "Arachidonate-Induced Bronchospasm (cyclooxygenase)", "test": "Pulmonary Mechanics Assay: arachidonate-induced bronchospasm without indomethacin (indicative of cyclooxygenase inhibition)", "format": "in vivo, male Hartley guinea pigs", "details": "Cavia porcellus, guinea pig", "method_in_brief": "(§1)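 Urethane-anaesthetised (2 g/kg i.p.), succinylcholine-paralysed, ventilated male Hartley guinea pigs; compound given by various routes between i.v. arachidonic acid challenges (0.5-1.0 mg/kg; then 5-10 mg/kg after indomethacin 10 mg/kg i.v.). Cdyn and RL changes expressed as percent inhibition of control.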"}, "[3]": {"test_system": "Arachidonate-Induced Bronchospasm (lipoxygenase)", "test": "Pulmonary Mechanics Assay: arachidonate-induced bronchospasm with indomethacin (SRS-A response, indicative of lipoxygenase inhibition)", "format": "in vivo, male Hartley guinea pigs", "details": "Cavia porcellus, guinea pig", "method_in_brief": "as §1"}, "[4]": {"test_system": "Arachidonate-Induced Ear Edema", "test": "Arachidonic Acid-Induced Ear Edema Assay", "format": "in vivo", "details": "topical, mouse ear; for inhibition in vivo at 0.4 mg: 400 μg topically", "description": "The topical anti-inflammatory activity of a compound was determined by its ability to inhibit an experimentally-induced inflammation in the mouse ear. Basically, four milligrams of arachidonic acid in acetone were applied to the dorsal surface of one ear with a microliter pipette. The mice were sacrificed at various times after application of arachidonic acid (one-half to six hours). A section of each ear was removed with a 7 mm round punch and weighed on an electronic or analytical balance. The difference in weight between treated and untreated ears was determined. Compounds to be evaluated for anti-inflammatory activity can be incorporated directly into the irritant mixture or at various times prior to or after application of arachidonic acid.\nThe degree of anti-inflammatory activity is shown in Table I, and is expressed in terms of the percent inhibition of ear weight increase."}, "[5]": {"details": "IV dosing, read-out: Inhibition of Arachidonate-Induced Bronchospasm (IV Dosing), % Inh. without Indomethacin"}, "[6]": {"details": "IV dosing, read-out: Inhibition of Arachidonate-Induced Bronchospasm (IV Dosing), % Inh. with Indomethacin"}, "[7]": {"details": "read-out: Inhibition of Arachidonate-Induced Ear Edema, % Inh. (μg topically)"}},
  "data": [
    {"smiles": "COc1ccc(CCNC(=O)N(C)O)cc1OC", "note": "[Example 40, N-[2-(3,4-Dimethoxyphenyl)ethyl]N'-hydroxy-N'-methylurea]", "values": [
      {"measurement": "IC50", "setting": "[1]", "value": 4300, "unit": "nM"},
      {"measurement": "inhibition in vivo at 25 mg/kg", "setting": "[2]; ID dosing, 25 mg/kg, read-out: Inhibition of Arachidonate-Induced Bronchospasm (ID Dosing), % Inh. without Indomethacin", "value": 69, "unit": "%"},
      {"measurement": "inhibition in vivo at 15 mg/kg", "setting": "[2]; [5]", "value": 86, "unit": "%"},
      {"measurement": "inhibition in vivo at 25 mg/kg", "setting": "[3]; ID dosing, 25 mg/kg, read-out: Inhibition of Arachidonate-Induced Bronchospasm (ID Dosing), % Inh. with Indomethacin", "value": 89, "unit": "%"},
      {"measurement": "inhibition in vivo at 15 mg/kg", "setting": "[3]; [6]", "value": 89, "unit": "%"},
      {"measurement": "inhibition in vivo at 0.4 mg", "setting": "[4]; [7]", "value": 66, "unit": "%"}
    ]},
    {"smiles": "CCCCCCCCCCN1CCN(O)C1=O", "note": "[Example 25, 1-Decyl-3-hydroxyimidazolidin-2-one]", "values": [
      {"measurement": "IC50", "setting": "[1]", "value": 740, "unit": "nM"},
      {"measurement": "inhibition in vivo at 20 mg/kg", "setting": "[2]; IV dosing, 20 mg/kg, read-out: Inhibition of Arachidonate-Induced Bronchospasm (IV Dosing), % Inh. without Indomethacin", "value": 85, "unit": "%"},
      {"measurement": "inhibition in vivo at 20 mg/kg", "setting": "[3]; IV dosing, 20 mg/kg, read-out: Inhibition of Arachidonate-Induced Bronchospasm (IV Dosing), % Inh. with Indomethacin", "value": 62, "unit": "%"},
      {"measurement": "Inhibition of Arachidonate-Induced Ear Edema, ED50", "setting": "[4]", "value": 90, "unit": "µg"},
      {"measurement": "inhibition in vivo at 0.4 mg", "setting": "[4]; [7]", "value": 81, "unit": "%"}
    ]},
    {"smiles": "CCCCCCCCCCN(C)C(=O)N(C)O", "note": "[Example 17, N-Decyl-N,N'-dimethyl-N'-hydroxyurea]", "values": [
      {"measurement": "IC50", "setting": "[1]", "value": 160, "unit": "nM"},
      {"measurement": "inhibition in vivo at 15 mg/kg", "setting": "[2]; [5]", "value": 41, "unit": "%"},
      {"measurement": "inhibition in vivo at 15 mg/kg", "setting": "[3]; [6]", "value": 79, "unit": "%"},
      {"measurement": "Inhibition of Arachidonate-Induced Ear Edema, ED50", "setting": "[4]", "value": 24, "unit": "µg"},
      {"measurement": "inhibition in vivo at 0.4 mg", "setting": "[4]; [7]", "value": 88, "unit": "%"}
    ]},
    {"smiles": "CCCCCCCCCCCCN(O)C(=O)N(C)C", "note": "[Example 13, N,N-Dimethyl-N.-dodecyl-N'-hydroxyurea]", "values": [
      {"measurement": "inhibition at 3 µM", "setting": "[1]", "value": 95, "unit": "%"},
      {"measurement": "inhibition in vivo at 15 mg/kg", "setting": "[2]; [5]", "value": 57, "unit": "%"},
      {"measurement": "inhibition in vivo at 15 mg/kg", "setting": "[3]; [6]", "value": 66, "unit": "%"},
      {"measurement": "inhibition in vivo at 0.2 mg", "setting": "[4]; 200 μg topically, read-out: Inhibition of Arachidonate-Induced Ear Edema, % Inh. (μg topically)", "value": 90, "unit": "%"}
    ]},
    {"smiles": "CCCCCCCCCCN(O)C(=O)NCCC(=O)OC", "note": "[Example 4, N-[2-(Methoxycarbonyl)ethyl]-N'-decyl-N'-hydroxyurea]", "values": [
      {"measurement": "inhibition at 3 µM", "setting": "[1]", "value": 100, "unit": "%"},
      {"measurement": "inhibition in vivo at 15 mg/kg", "setting": "[2]; [5]", "value": -39, "unit": "%"},
      {"measurement": "inhibition in vivo at 15 mg/kg", "setting": "[3]; [6]", "value": "< 20", "unit": "%"},
      {"measurement": "inhibition in vivo at 0.4 mg", "setting": "[4]; [7]", "value": 65, "unit": "%"}
    ]},
    {"smiles": "CCCCCCCCCCN(O)C(=O)N(CC)CC", "note": "[Example 1, N,N-Diethyl-N'-decyl-hydroxyurea]", "values": [
      {"measurement": "inhibition at 3 µM", "setting": "[1]", "value": 100, "unit": "%"},
      {"measurement": "inhibition in vivo at 15 mg/kg", "setting": "[2]; [5]", "value": 54, "unit": "%"},
      {"measurement": "inhibition in vivo at 15 mg/kg", "setting": "[3]; [6]", "value": 38, "unit": "%"},
      {"measurement": "inhibition in vivo at 0.4 mg", "setting": "[4]; [7]", "value": 52, "unit": "%"}
    ]}
  ]
}
